Experimental findings from patent publication US9266872B2, “2-hydroxyarylamide derivative or pharmaceutically acceptable salt thereof, preparation method thereof, and pharmaceutical composition for preventing or treating cancer containing same as active ingredient” (KOREA RESEARCH INSTITUTE OF BIOSCIENCE AND BIOTECHNOLOGY, priority 2011, dated 2016) are described below.

Test [1] has as its system TMPRSS4 over-expressing colorectal cancer cell line SW480. Briefly: Inhibitory effect on infiltration of cancer cells over-expressing TMPRSS4 (matrigel trans-well). The format is cell-based. To be noted: Homo sapiens, read-out: Inhibition rate of target-expressing colorectal cancer cell activity (%, 0.1~2 uM). On the procedure: The cells were distributed in a 6-well plate at the density of 3×10^5 cells/well, followed by transfection. 48 hours later, the medium was replaced with a selection medium (800 μg/ml G418 medium). G418-resistant clone was separated, followed by culture for 2 weeks, during which selection was performed.
The cancer cell line constructed in step 1 was distributed in a 24-well trans-well plate (8 μm pore size; Costar, USA) whose porous membrane was coated with 100 μl of matrigel (BD Biosciences, USA) diluted with serum-free medium at the concentration of 250 μg/ml, which stood at room temperature for 1 hour for solidification. Lower chamber of the trans-well plate was coated with 100 μl of collagen type I (Sigma) at the concentration of 20 μg/ml. […] While culturing the cells in a 37, 5% CO2 incubator for 48 hours, cell migration from the upper chamber to lower chamber was allowed. […] The excessive crystal violet solution was washed away with distilled water. The migrated cell number was counted from 5 randomly selected areas (×200). The experiment was repeated at least twice under the same condition, and the representative result was presented.
The inhibitory effect of each compound on the infiltration of TMPRSS4 over-expressing colorectal cancer cell line SW480 was calculated by Mathematical Formula 1, which presents the number of infiltrated cells with % by the number of infiltrated cells in the negative control treated with DMSO. Infiltration Inhibition Rate (%)=100−Infiltrated cell number with the treatment of each compound/Infiltrated cell number with the treatment of DMSO×100 [Mathematical Formula 1]

Another test addresses T1, TMPRSS4 serine protease (Homo sapiens, UniProt Q9NRS4).
T1 construct: TMPRSS4 serine protease domain (205th Val˜437th Leu) was cloned in pET21b/NdeI-XhoI; inferred from pET21b XhoI cloning and Ni-NTA purification) (C); made in house; host or cells: E. coli BL21 (DE3)
Briefly: Inhibitory effect on TMPRSS4 serine protease activity using peptide substrate. It counts as biochemical. The conditions noted are these: kallikrein peptide substrate 100 μM, DMSO negative control; for Intracellular protease activity Inhibition % 10 uM / inhibition at 10 µM: 10 uM compound; for inhibition at 10 µM: read-out: Intracellular protease activity Inhibition % 10 uM; for inhibition at 30 µM: read-out: Intracellular protease activity Inhibition % 30 uM; for inhibition at 100 µM: 100 uM compound, read-out: Intracellular protease activity Inhibition % 100 uM. The gist of the method:
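Human TMPRSS4 serine protease domain (Val205–Leu437), E. coli-expressed, Ni-NTA purified and enterokinase-activated. Hydrolysis of 100 μM fluorogenic peptide in 50 mM Tris-HCl pH 8.0, 10 mM CaCl2, 1 μM ZnCl2 read as fluorescence (ex 385/em 455 nm) every 5 min for 150 min; DMSO as negative control.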

Setting [2] is: 0.8 uM, SW480 over-expressing TMPRSS4, 48 hours.

The structures appear in SMILES notation. Like-named read-outs stand apart in the source and are kept apart here.

T1 sequence (Q9NRS4 205-437): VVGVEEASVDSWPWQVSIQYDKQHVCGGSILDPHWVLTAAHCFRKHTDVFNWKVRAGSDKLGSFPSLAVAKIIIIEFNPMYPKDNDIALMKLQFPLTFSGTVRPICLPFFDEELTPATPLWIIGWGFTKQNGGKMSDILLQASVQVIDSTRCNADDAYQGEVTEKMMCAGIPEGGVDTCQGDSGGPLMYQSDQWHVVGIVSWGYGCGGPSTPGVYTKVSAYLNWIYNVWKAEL

On to `O=C(Nc1cc(C(F)(F)F)cc(C(F)(F)F)c1)c1cc(Cl)ccc1O` [Example 1, N-(3,5-bis(trifluoromethyl)phenyl)-5-chloro-2-hydroxybenzamide], for which the inhibition (as a rule, the change of the read-out against control, counted positive when it falls) at 0.8 µM in test [1] (SW480, 48 h) was found to be 76%. On TMPRSS4 serine protease, the “Intracellular protease activity Inhibition % 10 uM” value is 64%, the inhibition at 10 µM fell in the range of 51 to 100% and the inhibition at 100 µM amounted to 100%. In addition, the inhibition at 30 µM at TMPRSS4 serine protease (30 uM compound) was 96%.

As to `COc1cc(NC(=O)c2cc(Cl)ccc2O)cc(C(F)(F)F)c1` [Example 6, 5-chloro-2-hydroxy-N-(3-methoxy-5-(trifluoromethyl)phenyl)benzamide], the inhibition at 0.8 µM in test [1] (setting [2]) turned out to be 49%. On TMPRSS4 serine protease, the “Intracellular protease activity Inhibition % 10 uM” value was 67%, the inhibition at 10 µM lay in the range of 51 to 100% and the inhibition at 100 µM is 99%. Moreover, the inhibition at 30 µM on TMPRSS4 serine protease (30 uM compound) was 88%.

As for `O=C(Nc1cnc2ccccc2c1)c1cc(Cl)ccc1O` [Example 25, 5-chloro-2-hydroxy-N-quinoline-3-yl-benzamide], the inhibition at 25 µM in test [1] (25 uM, SW480 over-expressing TMPRSS4, 48 hours) worked out at 51%. Besides, the inhibition at 30 µM on TMPRSS4 serine protease (30 uM compound) was 8%. Also, at TMPRSS4 serine protease, the inhibition at 100 µM turned out to be 75%.

Turning to `N#Cc1ccc(NC(=O)c2cc(Cl)ccc2O)c(Cl)c1` [Example 27, 5-chloro-N-(2-chloro-4-cyano-phenyl)-2-hydroxy-benzamide], in test [1] (2 uM, SW480 over-expressing TMPRSS4, 48 hours), the inhibition at 2 µM was 54%. Also, the inhibition at 30 µM at TMPRSS4 serine protease (30 uM compound) was 92%. Also, the inhibition at 100 µM on TMPRSS4 serine protease stood at 100%.

With `N#Cc1ccc(NC(=O)c2cc(Cl)ccc2O)nc1` [Example 37, 5-chloro-N-(5-cyano-pyridine-2-yl)-2-hydroxy-benzamide], the inhibition at 5 µM in test [1] (5 uM, SW480 over-expressing TMPRSS4, 48 hours) came to 44%. In addition, the inhibition at 10 µM on TMPRSS4 serine protease was found to be 26%. Moreover, at TMPRSS4 serine protease (30 uM compound), the “Intracellular protease activity Inhibition % 30 uM” value stood at 63% and the inhibition at 30 µM was 47 to 100%.

As to `Cc1c(C(F)(F)F)cc(NC(=O)c2cc(Cl)ccc2O)cc1C(F)(F)F` [Example 33, 5-chloro-2-hydroxy-N-(4-methyl-3,5-bis(trifluoromethyl)phenyl)benzamide], in test [1] (0.1 uM, SW480 over-expressing TMPRSS4, 48 hours), the inhibition at 0.1 µM turned out to be 43%. Further, on TMPRSS4 serine protease, the “Intracellular protease activity Inhibition % 10 uM” value is on record as 51% and the inhibition at 10 µM is 51 to 100%. In addition, at TMPRSS4 serine protease (30 uM compound), the inhibition at 30 µM was 94%.

Take `O=C(Nc1ccc(C(F)(F)F)cc1[N+](=O)[O-])c1cc(Cl)ccc1O` [Example 36, 5-chloro-2-hydroxy-N-(2-nitro-4-trifluoromethyl-phenyl)-benzamide]: the inhibition at 0.8 µM in test [1] (setting [2]) came out at 76%. For the same molecule, on TMPRSS4 serine protease, the “Intracellular protease activity Inhibition % 10 uM” value amounted to 53% and the inhibition at 10 µM lay within 51 to 100%.

For the molecule `O=C(Nc1cc(C(F)(F)F)cc(C(F)(F)F)c1)c1cc2ccccc2cc1O` [Example 8, N-(3,5-bis(trifluoromethyl)phenyl)-2-hydroxy-3-naphthaamide], the inhibition at 0.8 µM in test [1] (setting [2]) was determined as 72%. In addition, at TMPRSS4 serine protease, the “Intracellular protease activity Inhibition % 10 uM” value came to 58% and the inhibition at 10 µM is 51 to 100%. Also, the inhibition at 30 µM at TMPRSS4 serine protease (30 uM compound) worked out at 96%.
